System: peptide-specific IgG in sera of cancer patients and healthy donors
Assay: Measurement of anti-peptide IgG in plasma by LUMINEX multiplexed flow cytometric assay
Format: binding, human
Method: The levels of anti-peptide immunoglobulin G (IgG) were measured by the LUMINEX™ system (multiplexed flow cytometric assay) as previously reported (Komatsu N, Shichijo S, Nakagawa M, Itoh K. New multiplexed flow cytometric assay to measure anti-peptide antibody: a novel tool for monitoring immune responses to peptides used for immunization. Scand J Clin Lab Invest 2004; 64:1-11). In brief, plasma was incubated with 25 μl of peptide-coupled color-coded beads for 2 hr at room temperature on a plate shaker. After incubation, the mixture was washed with a vacuum manifold apparatus and incubated with 100 μl of biotinylated goat anti-human IgG (γ chain-specific)(BA-3080, Vector Laboratories, Burlingame, Calif., USA) for 1 h at room temperature. The plate was then washed, followed by the addition of 100 μl of streptavidin-PE (S-866, Molecular Probes, Eugene, Oreg., USA) into wells, and was incubated for 30 min at room temperature on a plate shaker. The bound beads were washed three times followed by the addition of 100 μl of Tween-PBS into each well. Fifty μl of sample was detected using the LUMINEX™ system (multiplexed flow cytometric assay). To confirm the specificity of IgG to a SCCA peptide, sample plasma was cultured in plates coated with a corresponding SCCA peptide, or with an irrelevant SCCA peptide. After the operation was repeated three times, the levels of the corresponding SCCA peptide-specific IgG in the resulting supernatant were determined by the LUMINEX™ system (multiplexed flow cytometric assay).
These 9 SCCA-derived peptides were screened based on their ability to be recognized by IgG in cancer patients. Peptide-specific IgG was measured by a multiplexed flow cytometric assay (LUMINEX™ (multiplexed flow cytometric assay)). The plasma samples were derived from 35 uterine cervical SCC patients, 10 breast adenocarcinoma patients, 10 pancreatic adenocarcinoma patients, 10 gastric adenocarcinoma, and 6 colon adenocarcinoma patients. The level of fluorescence intensity was judged to be significant when exceeded 100 at an 1/100 dilution.

AYELKIANKL (SCCA 98-107 peptide) [SCCA-derived peptide, position 98-107]
Total: healthy donors with significant peptide-reactive IgG / donors tested (10 healthy donors, significant when fluorescence intensity exceeded 100 at 1/100 dilution): 1/10 | Total: cancer patients with significant peptide-reactive IgG / patients tested (71 cancer patients, significant when fluorescence intensity exceeded 100 at 1/100 dilution): 12/71 | Fluorescence intesity (serum of Breast Ca. patient #36, 1:100 dilution): 44 | Fluorescence intesity (serum of Breast Ca. patient #37, 1:100 dilution): 18 | Fluorescence intesity (serum of Breast Ca. patient #38, 1:100 dilution): 12 | Fluorescence intesity (serum of Breast Ca. patient #39, 1:100 dilution): 20 | Fluorescence intesity (serum of Breast Ca. patient #40, 1:100 dilution): 10 | Fluorescence intesity (serum of Breast Ca. patient #41, 1:100 dilution): 214 | Fluorescence intesity (serum of Breast Ca. patient #42, 1:100 dilution): 12 | Fluorescence intesity (serum of Breast Ca. patient #43, 1:100 dilution): 12 | Fluorescence intesity (serum of Breast Ca. patient #44, 1:100 dilution): 0 | Fluorescence intesity (serum of Breast Ca. patient #45, 1:100 dilution): 18 | Fluorescence intesity (serum of Colon Ca. patient #66, 1:100 dilution): 0 | Fluorescence intesity (serum of Colon Ca. patient #67, 1:100 dilution): 0 | Fluorescence intesity (serum of Colon Ca. patient #68, 1:100 dilution): 0 | Fluorescence intesity (serum of Colon Ca. patient #69, 1:100 dilution): 0 | Fluorescence intesity (serum of Colon Ca. patient #70, 1:100 dilution): 0 | Fluorescence intesity (serum of Colon Ca. patient #71, 1:100 dilution): 26 | Fluorescence intesity (serum of Gastric Ca. patient #56, 1:100 dilution): 2 | Fluorescence intesity (serum of Gastric Ca. patient #57, 1:100 dilution): 0 | Fluorescence intesity (serum of Gastric Ca. patient #58, 1:100 dilution): 0 | Fluorescence intesity (serum of Gastric Ca. patient #59, 1:100 dilution): 15 | Fluorescence intesity (serum of Gastric Ca. patient #60, 1:100 dilution): 1 | Fluorescence intesity (serum of Gastric Ca. patient #61, 1:100 dilution): 8 | Fluorescence intesity (serum of Gastric Ca. patient #62, 1:100 dilution): 0 | Fluorescence intesity (serum of Gastric Ca. patient #63, 1:100 dilution): 0 | Fluorescence intesity (serum of Gastric Ca. patient #64, 1:100 dilution): 0 | Fluorescence intesity (serum of Gastric Ca. patient #65, 1:100 dilution): 0 | Fluorescence intesity (serum of Healthy Donor #1, 1:100 dilution): 0 | Fluorescence intesity (serum of Healthy Donor #2, 1:100 dilution): 35 | Fluorescence intesity (serum of Healthy Donor #3, 1:100 dilution): 0 | Fluorescence intesity (serum of Healthy Donor #4, 1:100 dilution): 0 | Fluorescence intesity (serum of Healthy Donor #5, 1:100 dilution): 0 | Fluorescence intesity (serum of Healthy Donor #6, 1:100 dilution): 0 | Fluorescence intesity (serum of Healthy Donor #7, 1:100 dilution): 0 | Fluorescence intesity (serum of Healthy Donor #8, 1:100 dilution): 361 | Fluorescence intesity (serum of Healthy Donor #9, 1:100 dilution): 39 | Fluorescence intesity (serum of Healthy Donor #10, 1:100 dilution): 0 | Fluorescence intesity (serum of Pancreas Ca. patient #46, 1:100 dilution): 0 | Fluorescence intesity (serum of Pancreas Ca. patient #47, 1:100 dilution): 6 | Fluorescence intesity (serum of Pancreas Ca. patient #48, 1:100 dilution): 369 | Fluorescence intesity (serum of Pancreas Ca. patient #49, 1:100 dilution): 0 | Fluorescence intesity (serum of Pancreas Ca. patient #50, 1:100 dilution): 0 | Fluorescence intesity (serum of Pancreas Ca. patient #51, 1:100 dilution): 0 | Fluorescence intesity (serum of Pancreas Ca. patient #52, 1:100 dilution): 100 | Fluorescence intesity (serum of Pancreas Ca. patient #53, 1:100 dilution): 0 | Fluorescence intesity (serum of Pancreas Ca. patient #54, 1:100 dilution): 0 | Fluorescence intesity (serum of Pancreas Ca. patient #55, 1:100 dilution): 0 | Fluorescence intesity (serum of Uterine cervical Ca. patient #1, 1:100 dilution): 11 | Fluorescence intesity (serum of Uterine cervical Ca. patient #2, 1:100 dilution): 0 | Fluorescence intesity (serum of Uterine cervical Ca. patient #3, 1:100 dilution): 0 | Fluorescence intesity (serum of Uterine cervical Ca. patient #4, 1:100 dilution): 0 | Fluorescence intesity (serum of Uterine cervical Ca. patient #5, 1:100 dilution): 0 | Fluorescence intesity (serum of Uterine cervical Ca. patient #6, 1:100 dilution): 1226 | Fluorescence intesity (serum of Uterine cervical Ca. patient #7, 1:100 dilution): 26 | Fluorescence intesity (serum of Uterine cervical Ca. patient #8, 1:100 dilution): 26 | Fluorescence intesity (serum of Uterine cervical Ca. patient #9, 1:100 dilution): 58 | Fluorescence intesity (serum of Uterine cervical Ca. patient #10, 1:100 dilution): 14 | Fluorescence intesity (serum of Uterine cervical Ca. patient #11, 1:100 dilution): 33 | Fluorescence intesity (serum of Uterine cervical Ca. patient #12, 1:100 dilution): 33 | Fluorescence intesity (serum of Uterine cervical Ca. patient #13, 1:100 dilution): 397 | Fluorescence intesity (serum of Uterine cervical Ca. patient #14, 1:100 dilution): 26 | Fluorescence intesity (serum of Uterine cervical Ca. patient #15, 1:100 dilution): 136 | Fluorescence intesity (serum of Uterine cervical Ca. patient #16, 1:100 dilution): 145 | Fluorescence intesity (serum of Uterine cervical Ca. patient #17, 1:100 dilution): 72 | Fluorescence intesity (serum of Uterine cervical Ca. patient #18, 1:100 dilution): 71 | Fluorescence intesity (serum of Uterine cervical Ca. patient #19, 1:100 dilution): 92 | Fluorescence intesity (serum of Uterine cervical Ca. patient #20, 1:100 dilution): 85 | Fluorescence intesity (serum of Uterine cervical Ca. patient #21, 1:100 dilution): 28 | Fluorescence intesity (serum of Uterine cervical Ca. patient #22, 1:100 dilution): 28 | Fluorescence intesity (serum of Uterine cervical Ca. patient #23, 1:100 dilution): 82 | Fluorescence intesity (serum of Uterine cervical Ca. patient #24, 1:100 dilution): 2650 | Fluorescence intesity (serum of Uterine cervical Ca. patient #25, 1:100 dilution): 17 | Fluorescence intesity (serum of Uterine cervical Ca. patient #26, 1:100 dilution): 166 | Fluorescence intesity (serum of Uterine cervical Ca. patient #27, 1:100 dilution): 33 | Fluorescence intesity (serum of Uterine cervical Ca. patient #28, 1:100 dilution): 139 | Fluorescence intesity (serum of Uterine cervical Ca. patient #29, 1:100 dilution): 21 | Fluorescence intesity (serum of Uterine cervical Ca. patient #30, 1:100 dilution): 50 | Fluorescence intesity (serum of Uterine cervical Ca. patient #31, 1:100 dilution): 107 | Fluorescence intesity (serum of Uterine cervical Ca. patient #32, 1:100 dilution): 18 | Fluorescence intesity (serum of Uterine cervical Ca. patient #33, 1:100 dilution): 191 | Fluorescence intesity (serum of Uterine cervical Ca. patient #34, 1:100 dilution): 17 | Fluorescence intesity (serum of Uterine cervical Ca. patient #35, 1:100 dilution): 21

Reference: US8030443B2, “Squamous cell carcinoma antigen-derived peptide binding to HLA-A24 molecule” (Kurume University, priority 2005, dated 2011)
